The values below come from patent publication US10231453B2, “5-substituted imidazole derivatives” (BAYER CROPSCIENCE AKTIENGESELLSCHAFT, priority 2015, dated 2019).

One test has as its system Puccinia recondita. In words: In vivo preventive test on Puccinia recondita (brown rust on wheat), Examples C and R3. Conditions: Puccinia recondita, 264 h; Example R3, wheat, preventive spray, 100 ppm, evaluated 11 days after inoculation; read-out: Efficacy in %.
On to `N#Cc1cn(CC(O)(Cc2ccccc2Cl)C2(Cl)CC2)cn1` (stereo not drawn) [drawing 91], for which the pest or weed control at 100 ppm came to 0%.
Take `N#Cc1cn(CC(O)(Cc2ccccc2F)C2(Cl)CC2)cn1` (stereo not drawn) [drawing 104]: the pest or weed control at 100 ppm worked out at 11%.
The same measure, in the same setting: as for `C#Cc1cn(CC(O)(Cc2ccccc2F)C2(Cl)CC2)cn1` (stereo not drawn) [drawing 93], the figure is 0%; as for `OC(Cc1ccccc1F)(Cn1ccnc1Cl)C1(Cl)CC1` (stereo not drawn) [drawing 96], 0%.

Staying with this test, now noted: Puccinia recondita, 264 h; Example R3, wheat, preventive spray, 500 ppm, evaluated 11 days after inoculation; read-out: Efficacy in %.
With `N#Cc1cn(CC(O)(Cc2ccccc2Cl)C2(Cl)CC2)cn1` (stereo not drawn) [drawing 91], the pest or weed control at 500 ppm was 83%.
Consider `N#Cc1cn(CC(O)(Cc2ccccc2F)C2(Cl)CC2)cn1` (stereo not drawn) [drawing 104], for which the pest or weed control at 500 ppm stood at 78%.
On the same count and under the same terms, under `C#Cc1cn(CC(O)(Cc2ccccc2F)C2(Cl)CC2)cn1` (stereo not drawn) [drawing 93] stands 13%; under `OC(Cc1ccccc1F)(Cn1ccnc1Cl)C1(Cl)CC1` (stereo not drawn) [drawing 96], 0%.

The test system of a further test is Septoria tritici. In words: In vivo preventive test on Septoria tritici (leaf spot on wheat), Examples E, Q3 and R5. Conditions: Zymoseptoria tritici, 576 h, 500 ppm of active ingredient; wheat, preventive spray, evaluated 24 days after inoculation; read-out: efficacy.
For `OC(Cc1ccccc1Cl)(Cn1cncc1-c1ccccc1)C1(Cl)CC1` (stereo not drawn) [Example I-09], the pest or weed control at 500 ppm is 70 to 79%.

The same test, now with this note: Zymoseptoria tritici, 576 h, Example R5, wheat, preventive spray, 100 ppm, evaluated 24 days after inoculation; read-out: Efficacy in %.
Consider `N#Cc1cn(CC(O)(Cc2ccccc2Cl)C2(Cl)CC2)cn1` (stereo not drawn) [drawing 127], for which the pest or weed control at 100 ppm amounted to 44%.
Take `OC(Cc1ccccc1Cl)(Cn1cnc(Br)c1)C1(Cl)CC1` (stereo not drawn) [drawing 123]: the pest or weed control at 100 ppm was 75%.
The same measure, in the same setting: as for `Cc1cn(CC(O)(Cc2ccccc2Cl)C2(Cl)CC2)cn1` (stereo not drawn) [drawing 125], the figure is 17%; as for `C#Cc1cn(CC(O)(Cc2ccccc2F)C2(Cl)CC2)cn1` (stereo not drawn) [drawing 129], 63%.
The same measure, in the same setting: under `OC(Cc1ccccc1F)(Cn1ccnc1Cl)C1(Cl)CC1` (stereo not drawn) [drawing 132] stands 20%; under `N#Cc1cn(CC(O)(Cc2ccccc2F)C2(Cl)CC2)cn1` (stereo not drawn) [drawing 140], 14%.
In the case of `OC(Cc1ccccc1F)(Cn1cnc(Cl)c1)C1(Cl)CC1` (stereo not drawn) [drawing 131], the pest or weed control at 100 ppm amounted to 0%.

Still in this test, the particulars now being: Zymoseptoria tritici, 576 h, Example R5, wheat, preventive spray, 500 ppm, evaluated 24 days after inoculation; read-out: Efficacy in %.
Turning to `N#Cc1cn(CC(O)(Cc2ccccc2Cl)C2(Cl)CC2)cn1` (stereo not drawn) [drawing 127], the pest or weed control at 500 ppm amounted to 78%.
Take `OC(Cc1ccccc1Cl)(Cn1cnc(Br)c1)C1(Cl)CC1` (stereo not drawn) [drawing 123]: the pest or weed control at 500 ppm came to 83%.
Still for that read-out and setting: as for `Cc1cn(CC(O)(Cc2ccccc2Cl)C2(Cl)CC2)cn1` (stereo not drawn) [drawing 125], the figure is 33%; as for `C#Cc1cn(CC(O)(Cc2ccccc2F)C2(Cl)CC2)cn1` (stereo not drawn) [drawing 129], 63%.
On the same count and under the same terms, as for `OC(Cc1ccccc1F)(Cn1ccnc1Cl)C1(Cl)CC1` (stereo not drawn) [drawing 132], the figure is 96%.
With `N#Cc1cn(CC(O)(Cc2ccccc2F)C2(Cl)CC2)cn1` (stereo not drawn) [drawing 140], the pest or weed control at 500 ppm was found to be 86%.
As to `OC(Cc1ccccc1F)(Cn1cnc(Cl)c1)C1(Cl)CC1` (stereo not drawn) [drawing 131], the pest or weed control at 500 ppm was 93%.

In the next test the test system is Sphaerotheca fuliginea. In words: In vivo preventive test on Sphaerotheca fuliginea (powdery mildew on cucurbits), Examples F and R6. Particulars: Podosphaera fuliginea, 360 h; 500 ppm of active ingredient; gherkin, preventive spray, evaluated 15 days after inoculation; read-out: efficacy.
Regarding `OC(Cc1ccccc1Cl)(Cn1cncc1-c1ccccc1)C1(Cl)CC1` (stereo not drawn) [Example I-09], the pest or weed control at 500 ppm lay within 90 to 100%.

The same test, now with this note: Podosphaera fuliginea, 360 h; Example R6, gherkin, preventive spray, 100 ppm, evaluated 15 days after inoculation; read-out: Efficacy in %.
On to `Cc1cn(CC(O)(Cc2ccccc2Cl)C2(Cl)CC2)cn1` (stereo not drawn) [drawing 144], for which the pest or weed control at 100 ppm was 0%.
In the case of `OC(Cc1ccccc1F)(Cn1ccnc1Cl)C1(Cl)CC1` (stereo not drawn) [drawing 149], the pest or weed control at 100 ppm is 0%.
Same read-out and setting: as for `OC(Cc1ccccc1F)(Cn1cnc(Cl)c1)C1(Cl)CC1` (stereo not drawn) [drawing 148], the figure is 60%.
With `OC(Cc1ccccc1Cl)(Cn1cnc(Br)c1)C1(Cl)CC1` (stereo not drawn) [drawing 142], the pest or weed control at 100 ppm stood at 20%.
For `C#Cc1cn(CC(O)(Cc2ccccc2F)C2(Cl)CC2)cn1` (stereo not drawn) [drawing 146], the pest or weed control at 100 ppm came to 0%.
As to `N#Cc1cn(CC(O)(Cc2ccccc2F)C2(Cl)CC2)cn1` (stereo not drawn) [drawing 157], the pest or weed control at 100 ppm amounted to 95%.

The test is the same for the next values; noted with them: Podosphaera fuliginea, 360 h; Example R6, gherkin, preventive spray, 500 ppm, evaluated 15 days after inoculation; read-out: Efficacy in %.
On to `Cc1cn(CC(O)(Cc2ccccc2Cl)C2(Cl)CC2)cn1` (stereo not drawn) [drawing 144], for which the pest or weed control at 500 ppm amounted to 30%.
On the same count and under the same terms, as for `OC(Cc1ccccc1F)(Cn1ccnc1Cl)C1(Cl)CC1` (stereo not drawn) [drawing 149], the figure is 78%.
The same measure, in the same setting: under `OC(Cc1ccccc1F)(Cn1cnc(Cl)c1)C1(Cl)CC1` (stereo not drawn) [drawing 148] stands 98%.
Consider `OC(Cc1ccccc1Cl)(Cn1cnc(Br)c1)C1(Cl)CC1` (stereo not drawn) [drawing 142], for which the pest or weed control at 500 ppm was 30%.
On the same count and under the same terms, under `C#Cc1cn(CC(O)(Cc2ccccc2F)C2(Cl)CC2)cn1` (stereo not drawn) [drawing 146] stands 60%.
As for `N#Cc1cn(CC(O)(Cc2ccccc2F)C2(Cl)CC2)cn1` (stereo not drawn) [drawing 157], the pest or weed control at 500 ppm amounted to 95%.

Another test concerns Uromyces appendiculatus. In words: In vivo preventive test on Uromyces appendiculatus (bean rust), Examples G and R7. Conditions: 264 h, 500 ppm of active ingredient, bean, preventive spray, evaluated 11 days after inoculation, read-out: efficacy.
In the case of `OC(Cc1ccccc1Cl)(Cn1cncc1-c1ccccc1)C1(Cl)CC1` (stereo not drawn) [Example I-09], the pest or weed control at 500 ppm fell in the range of 90 to 100%.

The test is the same for the next values; noted with them: 264 h, Example R7, bean, preventive spray, 100 ppm, evaluated 11 days after inoculation, read-out: Efficacy in %.
As for `OC(Cc1ccccc1Cl)(Cn1cnc(Br)c1)C1(Cl)CC1` (stereo not drawn) [drawing 159], the pest or weed control at 100 ppm amounted to 56%.
Still for that read-out and setting: under `N#Cc1cn(CC(O)(Cc2ccccc2F)C2(Cl)CC2)cn1` (stereo not drawn) [drawing 176] stands 25%; under `Cc1cn(CC(O)(Cc2ccccc2Cl)C2(Cl)CC2)cn1` (stereo not drawn) [drawing 161], 0%.
Still for that read-out and setting: as for `N#Cc1cn(CC(O)(Cc2ccccc2Cl)C2(Cl)CC2)cn1` (stereo not drawn) [drawing 163], the figure is 25%.
For the compound `C#Cc1cn(CC(O)(Cc2ccccc2F)C2(Cl)CC2)cn1` (stereo not drawn) [drawing 165], the pest or weed control at 100 ppm came out at 0%.
In the case of `OC(Cc1ccccc1F)(Cn1cnc(Cl)c1)C1(Cl)CC1` (stereo not drawn) [drawing 167], the pest or weed control at 100 ppm was determined as 0%.
Same read-out and setting: under `OC(Cc1ccccc1F)(Cn1ccnc1Cl)C1(Cl)CC1` (stereo not drawn) [drawing 168] stands 0%.

The same test, now with this note: 264 h, Example R7, bean, preventive spray, 500 ppm, evaluated 11 days after inoculation, read-out: Efficacy in %.
`OC(Cc1ccccc1Cl)(Cn1cnc(Br)c1)C1(Cl)CC1` (stereo not drawn) [drawing 159]: the pest or weed control at 500 ppm stood at 47%.
For the compound `N#Cc1cn(CC(O)(Cc2ccccc2F)C2(Cl)CC2)cn1` (stereo not drawn) [drawing 176], the pest or weed control at 500 ppm was found to be 56%.
Consider `Cc1cn(CC(O)(Cc2ccccc2Cl)C2(Cl)CC2)cn1` (stereo not drawn) [drawing 161], for which the pest or weed control at 500 ppm amounted to 100%.
Still for that read-out and setting: as for `N#Cc1cn(CC(O)(Cc2ccccc2Cl)C2(Cl)CC2)cn1` (stereo not drawn) [drawing 163], the figure is 50%; as for `C#Cc1cn(CC(O)(Cc2ccccc2F)C2(Cl)CC2)cn1` (stereo not drawn) [drawing 165], 0%.
For the compound `OC(Cc1ccccc1F)(Cn1cnc(Cl)c1)C1(Cl)CC1` (stereo not drawn) [drawing 167], the pest or weed control at 500 ppm is 0%.
Same read-out and setting: under `OC(Cc1ccccc1F)(Cn1ccnc1Cl)C1(Cl)CC1` (stereo not drawn) [drawing 168] stands 0%.
